Values joined by “and” are separate entries in the source; they are usually repeats but may differ in a detail not shown here. Equal entries are not always repeated. Marks after values point to notes of the source that are not given here.
Experiments:
[1] = in vitro; conditions: human, Caco-2
[2] = tested on: Caco-2 cell monolayer; experiment: Phenol red flux and apparent permeability across Caco-2 cell monolayer; format: in vitro ADME, human; conditions: AP→BL, 60 min, 5 μg/mL phenol red
[3] = tested on: Caco-2 cell monolayer; conditions: for Papp (AP→BL) / ER (efflux ratio, Papp(BL→AP)/Papp(AP→BL)) / Papp (BL→AP): constituent of DS 100 μg/mL, 180 min; for Papp (AP→BL) / Papp (BL→AP): from UPLC-ESI-MS/MS peak areas
[4] = tested on: Caco-2 cell monolayer; conditions: literature report; ref Chen et al., 2021; cited from earlier work

Compound | Papp A→B at 180 min, 100 μg/mL [1] | Papp B→A at 180 min, 100 μg/mL [1] | Papp (AP→BL) [3] | also measured
COc1ccc(-c2cc(=O)c3c(O)c(OC)c(OC)cc3o2)cc1O [Eupatorin] | 2.17 ×10⁻⁶ cm/s | 17.3 ×10⁻⁶ cm/s |  | 
O=S1(=O)OC(c2ccc(O)cc2)(c2ccc(O)cc2)c2ccccc21 [Phenol red] |  |  |  | Phenol red flux QBL ([2]; cell culture time 3 days): 4.18 ± 0.43^a μg; Phenol red flux QBL ([2]; cell culture time 6 days): 1.94 ± 0.70^b μg; Phenol red flux QBL ([2]; cell culture time 9 days): 1.36 ± 0.44^bc μg; Phenol red flux QBL ([2]; cell culture time 12 days): 0.88 ± 0.15^cd μg; Phenol red flux QBL ([2]; cell culture time 15 days): 0.49 ± 0.21 μg and 0.49 ± 0.21^d μg; Phenol red flux QBL ([2]; cell culture time 18 days): 0.40 ± 0.09^d μg; Phenol red flux QBL ([2]; cell culture time 21 days): 0.37 ± 0.07^d μg
COc1cc(C[C@H]2C(=O)OC[C@@H]2Cc2ccc(OC)c(OC)c2)ccc1O [Arctigenin] | 5.37 ×10⁻⁶ cm/s | 25.2 ×10⁻⁶ cm/s |  | efflux ratio at 180 min, 100 μg/mL [1]: 4.69
O=c1c(-c2ccc(O[C@@H]3O[C@H](CO)[C@@H](O)[C@H](O)[C@H]3O)cc2)coc2cc(O)cc(O)c12 [Sophoricoside] | 1.63 ×10⁻⁶ cm/s | 9.89 ×10⁻⁶ cm/s |  | 
COc1cc(-c2oc3cc(O)c(OC)c(O)c3c(=O)c2OC)cc(OC)c1O [5,7,4′-Trihydroxy-3,6,3′,5′-tetramethoxyflavone] | 3.24 ×10⁻⁶ cm/s | 23.1 ×10⁻⁶ cm/s |  | Differential metabolite TSA vs. TSB ([3]; VIP ≥ 1, p < 0.05, fold change >2.0 or < 0.5): upregulated; efflux ratio at 180 min, 100 μg/mL [1]: 7.13
CC(=O)Oc1ccccc1 [Phenyl acetate] | 8.89 ×10⁻⁶ cm/s | 19.4 ×10⁻⁶ cm/s |  | 
COc1cc([C@@H]2Oc3c(OC)cc(CCCO)cc3[C@H]2CO)ccc1O [Dihydrodehydrodiconiferyl alcohol] | 3.24 ×10⁻⁶ cm/s | 18.3 ×10⁻⁶ cm/s |  | 
COc1cc(/C=C/C(=O)O)ccc1O [Ferulic acid] |  |  | 17.37 10^−6 cm/s | ER (efflux ratio, Papp(BL→AP)/Papp(AP→BL)) [3]: 2.25; Papp (BL→AP) [3]: 39.16 10^−6 cm/s; Mode of translocation [4]: active transport

Continued, in another order:

Papp A→B at 180 min, 100 μg/mL [1] | Papp B→A at 180 min, 100 μg/mL [1] | Papp (AP→BL) [3] | Compound | also measured
0.78 ×10⁻⁶ cm/s | 4.26 ×10⁻⁶ cm/s |  | O=c1c(O[C@@H]2O[C@H](CO)[C@@H](O)[C@H](O)[C@H]2O)c(-c2ccc(O)cc2)oc2cc(O)cc(O)c12 [Astragalin] | 
 | 49.5 ×10⁻⁶ cm/s | 24.51 10^−6 cm/s | COc1ccc(/C=C/C(=O)O)cc1O [Isoferulic acid] | 
 |  | 3.05 10^−6 cm/s | 5,2′-Dihydroxy-7,8-dimethoxyflavone glycoside | ER (efflux ratio, Papp(BL→AP)/Papp(AP→BL)) [3]: 2.29; Papp (BL→AP) [3]: 6.97 10^−6 cm/s
3.5 ×10⁻⁶ cm/s | 23.2 ×10⁻⁶ cm/s |  | COc1cc(O)c(CC=C(C)C)c2c1C(=O)CC(c1ccc(O)cc1)O2 (stereo not drawn) [Isoxanthohumol] | Mode of translocation [4]: active transport
 | 2.81 ×10⁻⁶ cm/s | 20.87 10^−6 cm/s | COc1ccc2c(c1)OCC(=Cc1cccnc1)C2=O [7-Methoxy-3-[1-(3-pyridyl)methylidene]-4-chromanone] | efflux ratio at 180 min, 100 μg/mL [1]: 0.13
